What was measured:
male ICR mouse = test: Acetic acid-induced writhing method; format: in vivo
Method: The effect of the test compound in the writhing test method induced by acetic acid was examined using male ICR mouse (4-week-old). For intraperitoneal administration of the test compound, the test compound was dissolved in saline containing 5% DMSO and 5% Tween 80 to a suitable concentration, and administered at a dose of 5 ml/kg at 30 min before acetic acid administration. For oral administration of the test compound, the test compound was suspended in 0.5% CMC and administered at a dose of 5 ml/kg at 1 hr before acetic acid administration. Acetic acid was diluted with saline to 0.9%, intraperitoneally administered at a dose of 5 ml/kg and, starting 5 min thereafter, the number of writhing responses was counted for 15 min. Saline containing 5% DMSO and 5% Tween 80 was also intraperitoneally administered to the control group (vehicle administration group). As the standard product, indomethacin was used, which was suspended in 0.5% tragacanth gum and orally administered at 90 min before acetic acid administration. 0.5% Tragacanth gum was administered to the control group.
The number of writhing responses by each test compound is shown in FIG. 1 and the number of writhing responses by indomethacin is shown in FIG. 2.

Male ICR mice = test: Mustard oil-induced thermal hyperalgesia model method (hot plate test); format: in vivo; settings: 1.0 mg/kg oral, 1 hr before hot plate test; ICR mouse
Method: Male ICR mice (5 to 7-week-old) were used. Mustard oil 10% (diluted with distilled water) was subcutaneously injected into both hind paws, and a hot plate test was performed 30 min […] later. The animal was placed on a hot plate and the latency for nociceptive behavior was measured and used as an index. The compound was suspended in 0.5% CMC and orally administered at a dose of 5 ml/kg at 1 hr before the hot plate test. The inhibitory rate was calculated relative to the index measured before administration as 100%.

SMILES: O=C(NCCOc1ccc(F)cc1)Nc1ccccc1Br [Example 1, N-(2-bromophenyl)-N′-[2-(4-fluorophenoxy)ethyl]urea]
- inhibitory rate (number of writhing responses) (male ICR mouse; 10 mg/kg intraperitoneal, 30 min before acetic acid): 76%

SMILES: C[C@@H](COc1cccc(Cl)c1)NC(=O)Nc1cccc2cnccc12 [Example 38, N-[(1S)-2-(3-chlorophenoxy)-1-methylethyl]-N′-(isoquinolin-5-yl)urea]
- inhibition rate (latency for nociceptive behavior) (Male ICR mice): 57%

SMILES: COc1ccc2c(c1)c(CC(=O)O)c(C)n2C(=O)c1ccc(Cl)cc1 [indomethacin, reference compound]
- inhibitory rate (number of writhing responses) (male ICR mouse; 30 mg/kg oral, 90 min before acetic acid): 56%

Reference: US7728005B2, “Ether derivative” (Ajinomoto Co., Inc., priority 2003, dated 2010)
